Patent US20240217974A1, “ISOQUINOLONE COMPOUND AND USE THEREOF” (Suzhou Suncadia Biopharmaceuticals Co., Ltd., priority 2021, published 2024)
Where two headings read alike, the source gives them in different places.

Tests used:
PDE3A = target: T1, PDE3A (Homo sapiens, UniProt Q14432); experiment: In vitro PDE3A enzyme activity assay (IMAP FP-based); assay type: biochemical
T1 construct: purchased BPS 60030
Procedure: (§1) The formula for calculating inhibition rates is: inhibition rate=M/(M−Mcontrol)×100; IC50 values were calculated from concentration-inhibition rate curves fitted.

[1] = mouse, in vivo, inhaled or intranasal
Procedure: To evaluate the pharmacokinetic characteristics of test samples in […] and their distributions in lung tissue after intratracheal administration.
0.5 g of tween 80 was weighed out and dissolved in 50 mL of a pH 2.5 citric acid/disodium hydrogen phosphate buffered salt solution for later use.
1.0 mg of test compound was weighed out and dissolved in a proper amount of the tween solution to prepare a 0.03 mg/mL for later use.
0.5 g of CMC-Na and 0.5 g of tween 20 were weighed out and well mixed with 50 mL of 0.9% normal saline solution to obtain a 1% CMC-Na and tween 20 solution for later use.
1.0 mg of test compound was weighed out, added to 10 mL of the above solution, dispersed ultrasonically, and well stirred to obtain a suspension for later use.
Mice were anesthetized with isoflurane gas and then administered compounds via the trachea. […] 200 μL of whole blood was collected, then anticoagulated with EDTA-K2, and centrifuged at 2-8° C. at a rate of about 6800 g for 6 min. The resulting plasma was transferred to properly labeled test tubes within 1 h of blood collection/centrifugation and stored at −80° C. […] The collected tissue samples were transferred to properly labeled test tubes and stored at −80° C.
Plasma samples (30.0 μL) were added to 1.5 mL centrifuge tubes, and 150 μL of internal standard working solution was added. […]

[2] = recent phase II clinical data; cited from earlier work
PDE4B1 = target: T2, PDE4B1 (Homo sapiens, UniProt Q07343); experiment: In vitro PDE4B enzyme activity assay (IMAP FP-based); assay type: biochemical
T2 construct: purchased BPS 60041
T2 sequence (Q07343 whole entry): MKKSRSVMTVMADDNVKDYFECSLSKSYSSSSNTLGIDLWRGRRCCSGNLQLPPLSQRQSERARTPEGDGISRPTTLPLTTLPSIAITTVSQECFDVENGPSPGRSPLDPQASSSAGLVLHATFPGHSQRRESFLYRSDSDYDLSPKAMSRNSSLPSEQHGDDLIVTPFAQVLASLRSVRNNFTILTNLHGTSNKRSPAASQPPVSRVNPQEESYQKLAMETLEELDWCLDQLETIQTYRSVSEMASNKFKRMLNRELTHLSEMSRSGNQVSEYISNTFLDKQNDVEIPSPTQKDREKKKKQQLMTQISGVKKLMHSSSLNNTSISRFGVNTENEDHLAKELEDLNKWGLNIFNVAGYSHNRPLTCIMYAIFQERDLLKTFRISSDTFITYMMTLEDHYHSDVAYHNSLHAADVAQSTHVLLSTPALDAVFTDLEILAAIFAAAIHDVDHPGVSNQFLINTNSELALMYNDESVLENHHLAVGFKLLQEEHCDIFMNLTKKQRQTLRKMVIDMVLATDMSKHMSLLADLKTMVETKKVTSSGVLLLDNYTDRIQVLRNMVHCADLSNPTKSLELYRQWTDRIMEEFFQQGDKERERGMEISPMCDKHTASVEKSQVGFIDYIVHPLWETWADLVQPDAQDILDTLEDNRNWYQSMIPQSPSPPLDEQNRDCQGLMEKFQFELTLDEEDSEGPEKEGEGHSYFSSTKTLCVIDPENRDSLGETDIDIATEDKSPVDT
Procedure: as §1

T1 sequence (Q14432 669-1141 limits assumed): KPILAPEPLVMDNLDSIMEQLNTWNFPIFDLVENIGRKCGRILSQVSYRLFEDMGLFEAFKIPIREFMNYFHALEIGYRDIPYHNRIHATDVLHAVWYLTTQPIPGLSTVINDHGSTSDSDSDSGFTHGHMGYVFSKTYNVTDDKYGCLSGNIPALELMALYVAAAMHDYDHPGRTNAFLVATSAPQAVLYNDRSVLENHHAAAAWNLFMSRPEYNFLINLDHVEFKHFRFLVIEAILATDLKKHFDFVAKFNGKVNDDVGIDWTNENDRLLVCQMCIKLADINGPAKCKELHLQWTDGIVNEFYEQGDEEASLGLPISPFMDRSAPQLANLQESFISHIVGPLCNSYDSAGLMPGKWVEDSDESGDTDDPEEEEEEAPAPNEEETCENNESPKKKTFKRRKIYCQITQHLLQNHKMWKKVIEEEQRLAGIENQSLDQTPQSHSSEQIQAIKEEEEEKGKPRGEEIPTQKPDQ

Molecule: 9,10-dimethoxy-2-(2,4,6-trimethylphenylimino)-3-(N-carbamoyl-2-aminoethyl)-3,4,6,7-tetrahydro-2H-pyrimido[6,l-a]isoquinolin-4-one [RPL554]
- IC50 (PDE3A): 0.25 nM
- Inhibition rate (%) PDE3A (500 nM) (PDE3A; compound at 500 nM): 99.2%
- Plasma T1/2 [1]: 52.8 min
- Plasma Tmax [1]: 15 min
- bronchodilation and symptoms in patients with chronic obstructive pulmonary disease [2]: significantly improve bronchodilation and symptoms
- tolerability / adverse events [2]: well tolerated
- Inhibition rate (%) PDE4B1 (2000 nM) (PDE4B1; compound at 2000 nM): 64.2%
- IC50 (PDE4B1; read-out: IC50 (nM) PDE4B1): 110 nM

Molecule: CCOc1cc2c(cc1OC)-c1cc(N(CCN3CCOC3=O)c3c(C)cc(C)cc3C)nc(=O)n1CC2 [WX001]
- IC50 (PDE4B1): 876 nM
- inhibition at 2 µM (PDE4B1; read-out: Inhibition rate (%) PDE4B1 (2000 nM)): 66.3%
